Measured values taken from article PMC7496286, “The Selectivity of Fosfosal for STAT5b over STAT5a is Mediated by Arg566 in the Linker Domain” (Chembiochem, 2020).
Positions count from the first letter of the chain named.

What was measured:
[1] = molecular target: T1, STAT5b Met644Lys (Homo sapiens, UniProt P51692, M644K); experiment: FP-based competitive binding assay, STAT5b Met644Lys
T1 construct: His; made in house
T1 sequence (P51692 1-787 M644K): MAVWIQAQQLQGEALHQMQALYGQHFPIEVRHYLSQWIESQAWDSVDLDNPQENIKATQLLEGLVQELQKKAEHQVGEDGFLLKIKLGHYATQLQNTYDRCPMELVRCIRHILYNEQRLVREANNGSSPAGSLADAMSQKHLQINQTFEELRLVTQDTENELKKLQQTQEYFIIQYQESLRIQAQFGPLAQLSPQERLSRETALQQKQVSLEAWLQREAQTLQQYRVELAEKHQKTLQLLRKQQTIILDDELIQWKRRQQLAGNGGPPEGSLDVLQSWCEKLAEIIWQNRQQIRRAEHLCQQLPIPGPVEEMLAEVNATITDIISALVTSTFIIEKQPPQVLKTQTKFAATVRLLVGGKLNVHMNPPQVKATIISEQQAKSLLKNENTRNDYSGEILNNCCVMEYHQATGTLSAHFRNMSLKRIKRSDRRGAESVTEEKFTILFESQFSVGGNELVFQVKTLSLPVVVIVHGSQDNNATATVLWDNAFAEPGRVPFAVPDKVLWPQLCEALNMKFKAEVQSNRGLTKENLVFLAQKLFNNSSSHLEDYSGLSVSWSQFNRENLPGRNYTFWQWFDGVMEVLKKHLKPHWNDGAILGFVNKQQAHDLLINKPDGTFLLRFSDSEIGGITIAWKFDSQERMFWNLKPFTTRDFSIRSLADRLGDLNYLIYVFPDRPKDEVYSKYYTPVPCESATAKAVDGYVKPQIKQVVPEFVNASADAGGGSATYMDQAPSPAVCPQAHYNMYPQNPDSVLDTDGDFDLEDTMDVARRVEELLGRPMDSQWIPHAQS
Method: (§1) Fluorescence polarization assays
(§2) The ability of test compounds to displace 5-carboxyfluorescein-GY(PO3H2)LVLDKW (final concentration: 10 nM) from the SH2 domain of STAT5a/b proteins was analyzed. Proteins […]
(§3) was applied in dilution series comprising the following concentrations: 0.024 – 200 µM […]
(§4) and 0.146 – 600 µM (STAT5b Arg566Glu), respectively. The assays were performed in buffer containing 10 mM Tris, 50 mM NaCl, 1 mM DTT, 1 mM EDTA and 0.1% (v/v) NP-40. Fosfosal was dissolved in DMSO. STAT5a/b proteins and fosfosal were incubated at room temperature for 1 h before adding peptide. Samples were transferred to 384-well microtiter plates and fluorescence polarization was read after a further 1 h incubation time. All measurements were performed in triplicate (n=3), except for STAT5b (n=6) and STAT5a Trp566Arg (n=4). Percent binding was calculated based on a logarithmic curve fit using OriginPro 8G software. IC50 values were converted to Ki values using the published equation.[4] […]
(§5) [4] Z. Nikolovska-Coleska, R. Wang, X. Fang, H. Pan, Y. Tomita, P. Li, P. P. Roller, K.
(§6) Krajewski, N. G. Saito, J. A. Stuckey, S. Wang, Anal. Biochem. 2004, 332, 261-273.

[2] = molecular target: T2, STAT5b Arg566Ala (Homo sapiens, UniProt P51692, R566A); experiment: FP-based competitive binding assay, STAT5b Arg566Ala
T2 construct: His; made in house
T2 sequence (P51692 1-787 R566A): T1 sequence (P51692 1-787 M644K) with R566A, K644M
Method: as §1, §2, §3, §4, §5, §6

[3] = molecular target: T3, STAT5a Trp566Arg/Lys644Met (Homo sapiens, UniProt P42229, K644M/W566R); experiment: FP-based competitive binding assay, STAT5a Trp566Arg/Lys644Met
T3 construct: His; made in house
T3 sequence (P42229 1-794 W566R/K644M): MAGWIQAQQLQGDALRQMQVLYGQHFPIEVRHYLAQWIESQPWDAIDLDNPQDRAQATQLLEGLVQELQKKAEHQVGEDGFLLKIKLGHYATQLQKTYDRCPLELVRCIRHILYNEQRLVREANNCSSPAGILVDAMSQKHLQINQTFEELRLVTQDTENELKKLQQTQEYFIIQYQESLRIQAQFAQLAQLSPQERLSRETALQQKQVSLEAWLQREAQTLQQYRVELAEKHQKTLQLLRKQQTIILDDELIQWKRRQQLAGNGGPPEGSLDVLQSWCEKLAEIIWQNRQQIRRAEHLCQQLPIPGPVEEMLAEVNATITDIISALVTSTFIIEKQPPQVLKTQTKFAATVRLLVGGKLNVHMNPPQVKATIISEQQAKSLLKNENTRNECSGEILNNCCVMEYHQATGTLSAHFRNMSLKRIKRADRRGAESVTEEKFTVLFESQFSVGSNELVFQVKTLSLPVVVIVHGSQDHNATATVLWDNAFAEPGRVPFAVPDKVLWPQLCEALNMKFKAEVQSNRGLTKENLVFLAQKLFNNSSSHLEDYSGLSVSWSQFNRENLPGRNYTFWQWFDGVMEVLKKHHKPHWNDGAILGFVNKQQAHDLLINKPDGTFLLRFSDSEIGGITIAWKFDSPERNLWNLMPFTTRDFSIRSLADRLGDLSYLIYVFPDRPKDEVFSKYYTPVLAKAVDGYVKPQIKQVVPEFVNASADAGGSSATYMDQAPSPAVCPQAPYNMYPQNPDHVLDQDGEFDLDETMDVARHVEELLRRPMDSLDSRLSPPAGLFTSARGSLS
Method: as §1, §2, §3, §4, §5, §6

| IC50 ([1]; STAT5b Met644Lys) [µM] | Ki ([1]; STAT5b Met644Lys, Ki calculated from IC50) [µM] | inhibition at 600 µM ([2]; STAT5b Arg566Ala, 600 μM) [%] | IC50 ([3]; STAT5a Trp566Arg/Lys644Met) [µM] | Ki ([3]; STAT5a Trp566Arg/Lys644Met, Ki calculated from IC50) [µM] | Compound | Kd [1] [µM] | Kd [2] [µM] | Kd [3] [µM] |
| --- | --- | --- | --- | --- | --- | --- | --- | --- |
| – | – | – | – | – | CC(C)C[C@H](NC(=O)[C@H](Cc1ccc(OP(=O)(O)O)cc1)NC(=O)CNC(=O)c1ccc2c(c1)C(=O)OC21c2ccc(O)cc2Oc2cc(O)ccc21)C(=O)N[C@H](C(=O)N[C@@H](CC(C)C)C(=O)N[C@@H](CC(=O)O)C(=O)N[C@@H](CCCCN)C(=O)N[C@@H](Cc1c[nH]c2ccccc12)C(=O)O)C(C)C [5-carboxyfluorescein-GY(PO3H2)LVLDKW] | 0.026 | 0.567 | 0.08 |
| 36.6 ± 2 | 17.2 ± 0.9 | 22 ± 3 | 24.5 ± 1.4 | 12.3 ± 0.6 | O=C(O)c1ccccc1OP(=O)(O)O [fosfosal, O‐phosphorylated salicylic acid] | – | – | – |
